Reference: patent publication US20230085307A1, “PYRIDAZINONE COMPOUND AND HERBICIDE” (NISSAN CHEMICAL CORPORATION, priority 2019, published 2023)

What follows are compounds tested on oval-leafed pondweed (assay: Test Example 2: herbicidal activity, application during weed generation under submerged conditions (Table 17, symbol C)). Details: AAH 320 g/ha; application during weed generation, submerged conditions.
Type: in vivo, oval-leafed pondweed (Monochoria vaginalis)
How it was run: (§1)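 Wagner pot, alluvial soil, 4 cm flood; mixed sowing of all species; greenhouse 25° C.–30° C. Emulsifiable formulation, water-diluted to predetermined dose, applied to paddy water at 1–2 leaf stage. Effect rated at 3 wk using the earlier test's scoring criteria.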

Structure (SMILES)	herbicidal effect rating, C: oval-leafed pondweed
CCCCOc1ccc(-c2sc3ccccc3c2-c2c(O)c(C)nn(C)c2=O)cc1 [1-024]	5 (Herbicidal rate of 90% or more (almost completely withered))
CCCCOc1ccc(-c2sc3ccccc3c2-c2c(OC(=O)CCC)c(C)nn(C)c2=O)cc1 [1-025]	3 (Herbicidal rate of 40% or more and less than 70%)

These compounds were tested on late watergrass (assay: Test Example 2: herbicidal activity, application during weed generation under submerged conditions (Table 17, symbol A)). Details: AAH 320 g/ha; application during weed generation, submerged conditions.
Type: in vivo, late watergrass (Echinochloa oryzicola)
How it was run: as §1

Structure (SMILES)	herbicidal effect rating, A: late watergrass
CCCCOc1ccc(-c2sc3ccccc3c2-c2c(O)c(C)nn(C)c2=O)cc1 [1-024]	4 (Herbicidal rate of 70% or more and less than 90%)
CCCCOc1ccc(-c2sc3ccccc3c2-c2c(OC(=O)CCC)c(C)nn(C)c2=O)cc1 [1-025]	0 (Herbicidal rate of 5% or less (almost no effect))

Each compound was assayed on Japanese bulrush (assay: Test Example 1: herbicidal activity, application before weed generation under submerged conditions (Table 16, symbol B)). Details: 320 g/ha applied herbicide.
Type: in vivo, Japanese bulrush (Schoenoplectus juncoides)
How it was run: (§2)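 Alluvial soil was flooded to 4 cm depth, weed seeds were sown mixed and 2.5-leaf rice seedlings were transplanted. On sowing day, the compound's emulsion, diluted in water to a set dose, was applied to the water surface. Plants grew at 25–30 °C and were scored 0–5 after three weeks.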

Structure (SMILES)	Herbicidal effect on B: Japanese bulrush (grade 0-5)
CCCCOc1ccc(-c2sc3ccccc3c2-c2c(O)c(C)nn(C)c2=O)cc1 [1-024]	5 (Herbicidal rate of 90% or more (almost completely withered))
CCCCOc1ccc(-c2sc3ccccc3c2-c2c(OC(=O)CCC)c(C)nn(C)c2=O)cc1 [1-025]	5 (Herbicidal rate of 90% or more (almost completely withered))

These compounds were tested on barnyard grass (assay: Test Example 3: herbicidal effect by foliage application, Wagner pot (Table 18, symbol H)). Details: 320 g/ha.
Type: in vivo, barnyard grass (Echinochloa crus-galli)
How it was run: (§3)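 Plants were sown in alluvial soil held under 0.1–0.5 cm standing water and grown 14 days in a greenhouse at 25–30 °C. An emulsifiable formulation, water-diluted to the set dose, was then sprayed onto the foliage, and effects were scored three weeks later using previously defined criteria.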

Structure (SMILES)	herbicidal effect on H (barnyard grass), rating 0-5
CCCCOc1ccc(-c2sc3ccccc3c2-c2c(O)c(C)nn(C)c2=O)cc1 [1-024]	5 (Herbicidal rate of 90% or more (almost completely withered))
CCCCOc1ccc(-c2sc3ccccc3c2-c2c(OC(=O)CCC)c(C)nn(C)c2=O)cc1 [1-025]	5 (Herbicidal rate of 90% or more (almost completely withered))

Each compound was assayed on Italian ryegrass (assay: Test Example 5: herbicidal effect by foliage application, plastic box (Table 20, symbol K)). Details: foliage application, 320 g/ha, three weeks after application.
Type: in vivo, Italian ryegrass (Lolium multiflorum)
How it was run: (§4)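 Sow seeds spot-wise in sterilized diluvial soil; cover with ~1.5 cm soil. Grow 14 days in greenhouse, 25° C. to 30° C. Spray foliage with emulsion diluted to predetermined amount. Rate effect after 3 weeks.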

Structure (SMILES)	herbicidal effect grade, K: Italian ryegrass
CCCCOc1ccc(-c2sc3ccccc3c2-c2c(O)c(C)nn(C)c2=O)cc1 [1-024]	4 (Herbicidal rate of 70% or more and less than 90%)
CCCCOc1ccc(-c2sc3ccccc3c2-c2c(OC(=O)CCC)c(C)nn(C)c2=O)cc1 [1-025]	1 (Herbicidal rate of 5% or more and less than 20%)

The compounds below were run on redroot pigweed (assay: Test Example 4: herbicidal effect by soil treatment (Table 19, symbol N)). Details: amount of applied herbicide 320 g/ha.
Type: in vivo, redroot pigweed (Amaranthus retroflexus)
How it was run: (§5)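 Applied as a water-diluted emulsion, the compound was sprayed onto soil covering newly sown seeds. Evaluation came three weeks after application, in a greenhouse held at 25° C. to 30° C.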

Structure (SMILES)	herbicidal effect rating, N: redroot pigweed
CCCCOc1ccc(-c2sc3ccccc3c2-c2c(O)c(C)nn(C)c2=O)cc1 [1-024]	4 (Herbicidal rate of 70% or more and less than 90%)
CCCCOc1ccc(-c2sc3ccccc3c2-c2c(OC(=O)CCC)c(C)nn(C)c2=O)cc1 [1-025]	5 (Herbicidal rate of 90% or more (almost completely withered))

The compounds below were run on blackgrass (assay: Test Example 5: herbicidal effect by foliage application, plastic box (Table 20, symbol J)). Details: foliage application, 320 g/ha, three weeks after application.
Type: in vivo, blackgrass (Alopecurus myosuroides)
How it was run: as §4

Structure (SMILES)	herbicidal effect grade, J: blackgrass
CCCCOc1ccc(-c2sc3ccccc3c2-c2c(O)c(C)nn(C)c2=O)cc1 [1-024]	4 (Herbicidal rate of 70% or more and less than 90%)
CCCCOc1ccc(-c2sc3ccccc3c2-c2c(OC(=O)CCC)c(C)nn(C)c2=O)cc1 [1-025]	0 (Herbicidal rate of 5% or less (almost no effect))

What follows are compounds tested on barnyard grass (assay: Test Example 5: herbicidal effect by foliage application, plastic box (Table 20, symbol H)). Details: foliage application, 320 g/ha, three weeks after application.
Type: in vivo, barnyard grass (Echinochloa crus-galli)
How it was run: as §4

Structure (SMILES)	herbicidal effect grade, H: barnyard grass
CCCCOc1ccc(-c2sc3ccccc3c2-c2c(O)c(C)nn(C)c2=O)cc1 [1-024]	5 (Herbicidal rate of 90% or more (almost completely withered))
CCCCOc1ccc(-c2sc3ccccc3c2-c2c(OC(=O)CCC)c(C)nn(C)c2=O)cc1 [1-025]	4 (Herbicidal rate of 70% or more and less than 90%)

Each compound was assayed on late watergrass (assay: Test Example 1: herbicidal activity, application before weed generation under submerged conditions (Table 16, symbol A)). Details: 320 g/ha applied herbicide.
Type: in vivo, late watergrass (Echinochloa oryzicola)
How it was run: as §2

Structure (SMILES)	Herbicidal effect on A: late watergrass (grade 0-5)
CCCCOc1ccc(-c2sc3ccccc3c2-c2c(O)c(C)nn(C)c2=O)cc1 [1-024]	5 (Herbicidal rate of 90% or more (almost completely withered))
CCCCOc1ccc(-c2sc3ccccc3c2-c2c(OC(=O)CCC)c(C)nn(C)c2=O)cc1 [1-025]	3 (Herbicidal rate of 40% or more and less than 70%)

Each compound was assayed on redroot pigweed (assay: Test Example 5: herbicidal effect by foliage application, plastic box (Table 20, symbol N)). Details: foliage application, 320 g/ha, three weeks after application.
Type: in vivo, redroot pigweed (Amaranthus retroflexus)
How it was run: as §4

Structure (SMILES)	herbicidal effect grade, N: redroot pigweed
CCCCOc1ccc(-c2sc3ccccc3c2-c2c(O)c(C)nn(C)c2=O)cc1 [1-024]	5 (Herbicidal rate of 90% or more (almost completely withered))
CCCCOc1ccc(-c2sc3ccccc3c2-c2c(OC(=O)CCC)c(C)nn(C)c2=O)cc1 [1-025]	5 (Herbicidal rate of 90% or more (almost completely withered))

What follows are compounds tested on Italian ryegrass (assay: Test Example 4: herbicidal effect by soil treatment (Table 19, symbol K)). Details: amount of applied herbicide 320 g/ha.
Type: in vivo, Italian ryegrass (Lolium multiflorum)
How it was run: as §5

Structure (SMILES)	herbicidal effect rating, K: Italian ryegrass
CCCCOc1ccc(-c2sc3ccccc3c2-c2c(O)c(C)nn(C)c2=O)cc1 [1-024]	0 (Herbicidal rate of 5% or less (almost no effect))
CCCCOc1ccc(-c2sc3ccccc3c2-c2c(OC(=O)CCC)c(C)nn(C)c2=O)cc1 [1-025]	0 (Herbicidal rate of 5% or less (almost no effect))

Each compound was assayed on green foxtail (assay: Test Example 5: herbicidal effect by foliage application, plastic box (Table 20, symbol G)). Details: foliage application, 320 g/ha, three weeks after application.
Type: in vivo, green foxtail (Setaria viridis)
How it was run: as §4

Structure (SMILES)	herbicidal effect grade, G: green foxtail
CCCCOc1ccc(-c2sc3ccccc3c2-c2c(O)c(C)nn(C)c2=O)cc1 [1-024]	5 (Herbicidal rate of 90% or more (almost completely withered))
CCCCOc1ccc(-c2sc3ccccc3c2-c2c(OC(=O)CCC)c(C)nn(C)c2=O)cc1 [1-025]	3 (Herbicidal rate of 40% or more and less than 70%)

The compounds below were run on wild oat (assay: Test Example 5: herbicidal effect by foliage application, plastic box (Table 20, symbol I)). Details: foliage application, 320 g/ha, three weeks after application.
Type: in vivo, wild oat (Avena fatua)
How it was run: as §4

Structure (SMILES)	herbicidal effect grade, I: wild oat
CCCCOc1ccc(-c2sc3ccccc3c2-c2c(O)c(C)nn(C)c2=O)cc1 [1-024]	4 (Herbicidal rate of 70% or more and less than 90%)
CCCCOc1ccc(-c2sc3ccccc3c2-c2c(OC(=O)CCC)c(C)nn(C)c2=O)cc1 [1-025]	0 (Herbicidal rate of 5% or less (almost no effect))

What follows are compounds tested on windgrass (assay: Test Example 4: herbicidal effect by soil treatment (Table 19, symbol L)). Details: amount of applied herbicide 320 g/ha.
Type: in vivo, windgrass (Apera spica-venti)
How it was run: as §5

Structure (SMILES)	herbicidal effect rating, L: windgrass
CCCCOc1ccc(-c2sc3ccccc3c2-c2c(O)c(C)nn(C)c2=O)cc1 [1-024]	0 (Herbicidal rate of 5% or less (almost no effect))
CCCCOc1ccc(-c2sc3ccccc3c2-c2c(OC(=O)CCC)c(C)nn(C)c2=O)cc1 [1-025]	0 (Herbicidal rate of 5% or less (almost no effect))

What follows are compounds tested on Chinese sprangletop (assay: Test Example 3: herbicidal effect by foliage application, Wagner pot (Table 18, symbol D)). Details: 320 g/ha.
Type: in vivo, chinese sprangletop (Leptochloa chinensis)
How it was run: as §3

Structure (SMILES)	herbicidal effect on D (Chinese sprangletop), rating 0-5
CCCCOc1ccc(-c2sc3ccccc3c2-c2c(O)c(C)nn(C)c2=O)cc1 [1-024]	4 (Herbicidal rate of 70% or more and less than 90%)
CCCCOc1ccc(-c2sc3ccccc3c2-c2c(OC(=O)CCC)c(C)nn(C)c2=O)cc1 [1-025]	4 (Herbicidal rate of 70% or more and less than 90%)

What follows are compounds tested on rice flat sedge (assay: Test Example 3: herbicidal effect by foliage application, Wagner pot (Table 18, symbol E)). Details: 320 g/ha.
Type: in vivo, rice flat sedge (Cyperus iria)
How it was run: as §3

Structure (SMILES)	herbicidal effect on E (rice flat sedge), rating 0-5
CCCCOc1ccc(-c2sc3ccccc3c2-c2c(O)c(C)nn(C)c2=O)cc1 [1-024]	5 (Herbicidal rate of 90% or more (almost completely withered))
CCCCOc1ccc(-c2sc3ccccc3c2-c2c(OC(=O)CCC)c(C)nn(C)c2=O)cc1 [1-025]	5 (Herbicidal rate of 90% or more (almost completely withered))
